Patent US20040132803A1, “Agent for the treatment of overactive bladder” (priority 2003, published 2004)

What was measured:
Assay type in all cases: cell-based, rat
[1] = system: delayed rectifier K^+ currents; test: Delayed rectifier K^+ currents in Fast Blue-labeled capsaicin-sensitive bladder afferent neurons; settings: 1.0 × 10^−6 mol/L
Method: (§1) Experiments were performed on adult female Sprague Dawley rats. First and second series of the experiments were performed, respectively, in unidentified DRG neurons and a specific population of DRG neurons innervating the urinary bladder. The population of DRG neurons that innervate the urinary bladder were labeled by retrograde axonal transport of the fluorescent dye, Fast Blue (4% w/v) (Polyloy, Gross Umstadt, Germany), injected into the wall of the bladder in halothane-anesthetized animals 7 days before the dissociation. The dye was injected with a 28 gauge needle at three to six sites on the dorsal surface of the organ (5-6 μL per site, total volume of 20-30 μL). Each injection site was washed with saline to minimize contamination of adjacent organs with the dye.
Freshly dissociated neurons from DRG were prepared from halothane-anesthetized animals. […]
Dye-labeled primary afferent neurons that innervate the urinary bladder were identified using an inverted phase-contrast microscope (Nikon, Tokyo, Japan) with fluorescent attachments (UV-1A filter; excitation wavelength, 365 nm). […] All recordings were made with an Axopatch-1D patch-clamp amplifier (Axon Instruments, Foster City, Calif.), and data were acquired and analyzed by PCLAMP software (Axon Instruments).
In voltage-clamp recordings, outward K^+ currents and inward Na^+ currents were measured. […]

[2] = system: slowly-inactivating A-type K^+ currents; test: Voltage-clamp outward K^+ currents at HP −90 mV in unidentified DRG neurons; settings: for K^+ current at HP: −90 mV, relative value (before compound = 1): unidentified DRG neurons
Method: as §1
(§2) Freshly dissociated neurons from DRG were prepared from halothane-anesthetized animals. L6 and S1 DRG were dissected from animals and then dissociated in a shaking bath for 25 minutes at 35° C. with 5 mL DMEM (Sigma) containing 0.3 mg/mL trypsin (Type 3, Sigma), 1 mg/mL collagenase (Type 1, Sigma), and 0.1 mg/mL deoxyribonuclease (Type 4, Sigma). Trypsin inhibitor (Type 2a, Sigma) was then added thereto to neutralize the activity of trypsin. Individual DRG cell bodies were isolated by trituration and then plated on a poly-L-lysine-coated 35 mm Petri dishes.
(§3) Dye-labeled primary afferent neurons that innervate the urinary bladder were identified using an inverted phase-contrast microscope (Nikon, Tokyo, Japan) with fluorescent attachments (UV-1A filter; excitation wavelength, 365 nm). Gigaohm-seal whole-cell recordings were performed at room temperature (20-22° C.) on each labeled neuron in a culture dish that usually contained three to seven labeled cells among a few hundred unlabeled neurons. The internal solution contained (in mmol/L): KCl 140, CaCl2 1, MgCl2 2, EGTA 11, HEPES 10, Mg-ATP 2, and Tris-GTP 0.4 adjusted to pH 7.4 with KOH. Patch electrodes had resistances of 1-4 MΩ when filled with the internal solution. Neurons were superfused at a flow rate of 1.5 mL/minutes with an external solution containing (in mmol/L): NaCl 150, KCl 5, CaCl2 2.5, MgCl2 1, HEPES 10, and D-glucose 10, adjusted to pH 7.4 with NaOH. All recordings were made with an Axopatch-1D patch-clamp amplifier (Axon Instruments, Foster City, Calif.), and data were acquired and analyzed by PCLAMP software (Axon Instruments).
In voltage-clamp recordings, outward K^+ currents and inward Na^+ currents were measured. For the isolation of K^+ currents, the external solution was changed to one containing (in mmol/L): choline-Cl 150, KOH 5, CaCl2 0.03, HEPES 10, Mg(OH)2 3, and D-glucose 10, adjusted to pH 7.4 with HCl.
In first series of experiments using unidentified DRG neurons, outward K^+ currents were evoked by voltage steps to +60 mV, 800 ms long from a holding potentials of −90 mV, this was followed by a 1-second conditioning prepulse to −20 mV followed by a second pulse to +60 mV, identical to the first in the sequence. In the second series of experiments using Fast Blue-labeled bladder afferent neurons, slowly-inactivating A-type K^+ currents were isolated by. subtraction of outward K^+ currents activated from a holding potential of −40 mV (on the condition of inactivation of the majority of slowly-inactivating A-type K^+ currents) from those activated from a holding potential of −120 mV (on the condition of full activation of slowly-inactivating A-type K^+ currents). A compound was added cumulatively, starting with a lower concentration. Currents were measured at the maximum (peak) and normalized to control (before addition of the compound).

Na^+ currents = test: Voltage-clamp inward Na^+ currents in DRG cells
Method: as §1, §2, §3
Inward Na^+ currents were evoked by voltage steps to +60 mV, 800 ms long from a holding potential of −90 mV. Currents were measured at the maximum (peak) and normalized to control (before addition of the compound).

What does the source list for `C[C@](O)(C(=O)Nc1cccc2c1C(=O)c1sccc1CS2(=O)=O)C(F)(F)F` [Compound 1, (S)-(+)-N-(5,5-dioxido-10-oxo-4,10-dihydrothieno[3,2-c][l]benzothiepin-9-yl)-3,3,3-trifluoro-2-hydroxy-2-methylpropanamide]?
Delayed rectifier HP: −40 mV, normalized to control [1]: 1.10 ± 0.01; K^+ current at HP: −90 mV, relative value ([2]; 1.0 × 10^−5 mol/L, in the presence of 5 μmol/L verapamil): 0.99 ± 0.02; K^+ current at HP: −90 mV, relative value ([2]; 1.0 × 10^−5 mol/L, in the presence of 20 mmol/L tetraethylammonium): 1.19 ± 0.01; K^+ current at HP: −90 mV, relative value (before compound = 1) ([2]; 1.0 × 10^−5 mol/L): 0.96 ± 0.05; K^+ current at HP: −90 mV, relative value ([2]; 1.0 × 10^−6 mol/L, in the presence of 5 μmol/L verapamil): 1.11 ± 0.03; K^+ current at HP: −90 mV, relative value ([2]; 1.0 × 10^−6 mol/L, in the presence of 20 mmol/L tetraethylammonium): 1.19 ± 0.05; K^+ current at HP: −90 mV, relative value (before compound = 1) ([2]; 1.0 × 10^−6 mol/L): 1.06 ± 0.02; K^+ current at HP: −90 mV, relative value ([2]; 1.0 × 10^−7 mol/L, in the presence of 5 μmol/L verapamil): 1.13 ± 0.02; K^+ current at HP: −90 mV, relative value ([2]; 1.0 × 10^−7 mol/L, in the presence of 20 mmol/L tetraethylammonium): 1.10 ± 0.01; K^+ current at HP: −90 mV, relative value (before compound = 1) ([2]; 1.0 × 10^−7 mol/L): 1.12 ± 0.03; K^+ current at HP: −90 mV, relative value (before compound = 1) ([2]; 1.0 × 10^−8 mol/L): 0.99 ± 0.08; K^+ current at HP: −90 mV, relative value (before compound = 1) ([2]; 2.5 × 10^−8 mol/L): 1.07 ± 0.03; K^+ current at HP: −90 mV, relative value ([2]; 5.0 × 10^−4 mol/L, in the presence of 5 μmol/L verapamil): 0.61 ± 0.05; K^+ current at HP: −90 mV, relative value ([2]; 5.0 × 10^−4 mol/L, in the presence of 20 mmol/L tetraethylammonium): 0.29 ± 0.02; K^+ current at HP: −90 mV, relative value ([2]; 5.0 × 10^−4 mol/L, in the presence of 60 mmol/L tetraethylammonium): 0.56 ± 0.05; K^+ current at HP: −90 mV, relative value ([2]; 5.0 × 10^−5 mol/L, in the presence of 5 μmol/L verapamil): 0.94 ± 0.02; K^+ current at HP: −90 mV, relative value ([2]; 5.0 × 10^−5 mol/L, in the presence of 20 mmol/L tetraethylammonium): 0.91 ± 0.04; K^+ current at HP: −90 mV, relative value ([2]; 5.0 × 10^−5 mol/L, in the presence of 60 mmol/L tetraethylammonium): 1.15 ± 0.08; K^+ current at HP: −90 mV, relative value (before compound = 1) ([2]; 5.0 × 10^−5 mol/L): 0.83 ± 0.09; K^+ current at HP: −90 mV, relative value ([2]; 5.0 × 10^−6 mol/L, in the presence of 5 μmol/L verapamil): 1.02 ± 0.03; K^+ current at HP: −90 mV, relative value ([2]; 5.0 × 10^−6 mol/L, in the presence of 20 mmol/L tetraethylammonium): 1.16 ± 0.03; K^+ current at HP: −90 mV, relative value ([2]; 5.0 × 10^−6 mol/L, in the presence of 60 mmol/L tetraethylammonium): 1.14 ± 0.05; K^+ current at HP: −90 mV, relative value ([2]; 5.0 × 10^−7 mol/L, in the presence of 5 μmol/L verapamil): 1.17 ± 0.03; K^+ current at HP: −90 mV, relative value ([2]; 5.0 × 10^−7 mol/L, in the presence of 20 mmol/L tetraethylammonium): 1.15 ± 0.04; K^+ current at HP: −90 mV, relative value ([2]; 5.0 × 10^−7 mol/L, in the presence of 60 mmol/L tetraethylammonium): 1.11 ± 0.03; K^+ current at HP: −90 mV, relative value (before compound = 1) ([2]; 5.0 × 10^−7 mol/L): 1.15 ± 0.03; K^+ current at HP: −90 mV, relative value ([2]; 5.0 × 10^−8 mol/L, in the presence of 5 μmol/L verapamil): 1.03 ± 0.02; K^+ current at HP: −90 mV, relative value ([2]; 5.0 × 10^−8 mol/L, in the presence of 20 mmol/L tetraethylammonium): 1.08 ± 0.02; K^+ current at HP: −90 mV, relative value ([2]; 5.0 × 10^−8 mol/L, in the presence of 60 mmol/L tetraethylammonium): 1.08 ± 0.02; K^+ current at HP: −90 mV, relative value (before compound = 1) ([2]; 5.0 × 10^−8 mol/L): 1.07 ± 0.02; K^+ current at HP: −90 mV, relative value ([2]; 5.0 × 10^−9 mol/L, in the presence of 20 mmol/L tetraethylammonium): 1.02 ± 0.02; K^+ current at HP: −90 mV, relative value (before compound = 1) ([2]; 5.0 × 10^−9 mol/L): 1.01 ± 0.03; peak compound concentration for increase of slowly-inactivating A-type K^+ currents ([2]; unidentified DRG cells, HP −90 mV): 1e-07 to 5e-07 mol/L; influence upon Na^+ currents (Na^+ currents): does not exert influence; Na^+ ion currents, normalized to control (Na^+ currents; 1.0 × 10^−6 mol/L): 0.99 ± 0.02; Na^+ ion currents, normalized to control (Na^+ currents; 5.0 × 10^−4 mol/L): 1.00 ± 0.01; Na^+ ion currents, normalized to control (Na^+ currents; 5.0 × 10^−5 mol/L): 1.00 ± 0.01; Na^+ ion currents, normalized to control (Na^+ currents; 5.0 × 10^−6 mol/L): 1.00 ± 0.00; Na^+ ion currents, normalized to control (Na^+ currents; 5.0 × 10^−7 mol/L): 0.99 ± 0.01; Na^+ ion currents, normalized to control (Na^+ currents; 5.0 × 10^−8 mol/L): 0.99 ± 0.01
